Experimental findings from patent US11142525B2 (Pfizer Inc., priority 2018, dated 2021) are described below.

The target of experiment [1] is human full-length recombinant HPK1 (Homo sapiens (Human), UniProt Q92918). The experiment can be described thus: HPK1 biochemical enzyme assay, microfluidic mobility shift assay (MSA). Particulars: mobility shift assay; 75 μM ATP; Morrison equation, tight-binding competitive inhibition; read-out: HPK1 Enzyme Assay_Ki. Here is the method:
HPK1 enzyme inhibition was measured using a microfluidic mobility shift assay (MSA). […] The reactions were conducted for 60 min at 37° C., stopped by the addition of 50 μL of 0.015 M EDTA, pH 8, and the extent of reactions (˜15-20% conversion with no inhibitor) was determined after electrophoretic separation of the fluorescently labeled peptide substrate and phosphorylated product on an LabChip EZ Reader II (PerkinElmer, Inc., Waltham, Mass.). […]

The test system of experiment [2] is phospho-SLP-76 (Ser376) in Jurkat cells. The experiment can be described thus: Phospho-SLP-76 (Ser376) Homogeneous Time Resolved Fluorescence (HTRF) assay in Jurkat cells. In kind it is cell-based. The conditions noted are these: Homo sapiens, 30 min pre-treatment, anti-CD3 stimulation 15 min, HTRF, read-out: SLP76 Assay_IC50. Here is the method: Jurkat cells were seeded at 90,000 cells/well in 90 uL of RPMI1640 growth medium containing 10% FBS and incubated at 37° C. with 5% CO2 overnight. The following day, compounds were serially diluted from a 10 mM top dose for an 11-point 3 fold dilution curve in DMSO. Compounds were intermediately diluted 1:100 into growth media prior to diluting 1:10 on cells for final concentration 10 μM to 0.1 nM in 0.1% DMSO. After 30 minutes pre-treatment with compounds, the cells were stimulated using 200 μg/mL of F(ab)2 complexed anti-CD3 (clone UCTH1) for 15 min at 37° C. with 5% CO2. Stimulation was stopped with ice cold PBS and cells were harvested by centrifugation before lysis in Cisbio lysis buffer (Cisbio, Bedford, Mass.). Lysates were transferred to white, low-volume plates containing anti-phospho-SLP-76-Cryptate plus anti-phospho-SLP-76-d2 HTRF antibodies and incubated overnight at room temperature protected from light according to the manufacturer's protocol (Cisbio, Bedford, Mass.). HTRF was measured on a Perkin Elmer Envision and IC50 values were calculated by concentration-response curve fitting utilizing four-parameter nonlinear regression analyses.
(TR-FRET usually uses a lanthanide donor and a delayed reading to cut background.)

Chain of human full-length recombinant HPK1 (Q92918 whole entry): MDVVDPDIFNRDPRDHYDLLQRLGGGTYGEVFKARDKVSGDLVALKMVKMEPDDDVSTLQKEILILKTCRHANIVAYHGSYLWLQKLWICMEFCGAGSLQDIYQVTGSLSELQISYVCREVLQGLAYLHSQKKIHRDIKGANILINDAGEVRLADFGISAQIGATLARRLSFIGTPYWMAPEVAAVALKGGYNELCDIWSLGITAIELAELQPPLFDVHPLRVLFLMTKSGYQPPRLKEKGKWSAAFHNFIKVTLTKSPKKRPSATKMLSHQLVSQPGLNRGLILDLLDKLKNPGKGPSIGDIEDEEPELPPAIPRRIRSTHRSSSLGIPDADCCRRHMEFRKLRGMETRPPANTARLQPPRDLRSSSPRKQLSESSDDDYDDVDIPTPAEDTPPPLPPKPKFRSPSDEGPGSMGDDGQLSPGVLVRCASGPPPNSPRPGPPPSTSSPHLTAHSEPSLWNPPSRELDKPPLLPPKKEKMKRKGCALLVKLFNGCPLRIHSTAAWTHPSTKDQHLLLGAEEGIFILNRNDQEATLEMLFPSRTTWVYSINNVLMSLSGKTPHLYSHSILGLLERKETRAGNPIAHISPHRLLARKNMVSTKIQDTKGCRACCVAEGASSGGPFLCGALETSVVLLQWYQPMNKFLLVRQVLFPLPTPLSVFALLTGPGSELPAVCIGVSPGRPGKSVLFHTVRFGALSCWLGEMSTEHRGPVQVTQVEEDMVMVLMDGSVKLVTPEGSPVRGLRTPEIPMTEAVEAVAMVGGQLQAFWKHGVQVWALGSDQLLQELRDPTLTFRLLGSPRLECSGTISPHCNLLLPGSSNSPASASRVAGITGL

Take `CNCc1nc(C2(C)CC2)cc2c1CN(c1cccc(-c3nncn3C(C)C)n1)C2=O` [Example 7, 4-[(methylamino)methyl]-6-(1-methylcyclopropyl)-2-{6-[4-(propan-2-yl)-4H-1,2,4-triazol-3-yl]pyridin-2-yl}-2,3-dihydro-1H-pyrrolo[3,4-c]pyridin-1-one]: the Ki in experiment [1] was determined as 1.46 nM. Also, the IC50 in experiment [2] was found to be 730 nM.
On the same counts, the results for `CNCc1nc(N2[C@H](C)CC[C@H]2C)cc2c1CN(c1cccc(-c3nncn3C(C)C)n1)C2=O` [Example 8, 6-[(2R,5R)-2,5-dimethylpyrrolidin-1-yl]-4-[(methylamino)methyl]-2-{6-[4-(propan-2-yl)-4H-1,2,4-triazol-3-yl]pyridin-2-yl}-2,3-dihydro-1H-pyrrolo[3,4-c]pyridin-1-one] are 0.25 nM and 89 nM.
The matching figures for `CCN(CC)c1cc2c(c(CNC)n1)CN(c1cccc(-c3nncn3CC)n1)C2=O` [Example 9, 6-(diethylamino)-2-[6-(4-ethyl-4H-1,2,4-triazol-3-yl)pyridin-2-yl]-4-[(methylamino)methyl]-2,3-dihydro-1H-pyrrolo[3,4-c]pyridin-1-one]: 0.27 nM and 88 nM.
In the case of `CNCc1nc(N(C)C)cc2c1CN(c1cccc(N3C(=O)OC[C@@H]3C)n1)C2=O` [Example 10, 6-(dimethylamino)-4-[(methylamino)methyl]-2-{6-[(4S)-4-methyl-2-oxo-1,3-oxazolidin-3-yl]pyridin-2-yl}-2,3-dihydro-1H-pyrrolo[3,4-c]pyridin-1-one], in experiment [1], the Ki came out at 0.26 nM. Further, in experiment [2], the IC50 amounted to 97.6 nM.
On to `CC(C)c1[nH]ncc1-c1cccc(N2Cc3c(cc(N(C)C)nc3CN)C2=O)n1` [Example 11, 4-(aminomethyl)-6-(dimethylamino)-2-{6-[5-(propan-2-yl)-1H-pyrazol-4-yl]pyridin-2-yl}-2,3-dihydro-1H-pyrrolo[3,4-c]pyridin-1-one], for which, in experiment [1], the Ki was determined as 0.09 nM. Moreover, the IC50 in experiment [2] came to 159 nM.
On to `CC(C)n1cnnc1-c1cccc(N2Cc3c(cc(N(C)C)nc3CN)C2=O)n1` [Example 12, 4-(aminomethyl)-6-(dimethylamino)-2-{6-[4-(propan-2-yl)-4H-1,2,4-triazol-3-yl]pyridin-2-yl}-2,3-dihydro-1H-pyrrolo[3,4-c]pyridin-1-one], for which, in experiment [1], the Ki came to 0.2 nM. Further, in experiment [2], the IC50 worked out at 155 nM.
On the same counts, the results for `C[C@@H](CC(F)(F)F)n1cnnc1-c1cccc(N2Cc3c(cc(N(C)C)nc3CN)C2=O)n1` [Example 13, 4-(aminomethyl)-6-(dimethylamino)-2-(6-{4-[(2S)-4,4,4-trifluorobutan-2-yl]-4H-1,2,4-triazol-3-yl}pyridin-2-yl)-2,3-dihydro-1H-pyrrolo[3,4-c]pyridin-1-one] are below 0.08 nM and 85 nM.
The matching figures for `CC[C@H](C)n1cnnc1-c1cccc(N2Cc3c(cc(N(C)C)nc3CNC)C2=O)n1` [Example 14, 2-(6-{4-[(2S)-butan-2-yl]-4H-1,2,4-triazol-3-yl}pyridin-2-yl)-6-(dimethylamino)-4-[(methylamino)methyl]-2,3-dihydro-1H-pyrrolo[3,4-c]pyridin-1-one]: 0.17 nM and 102 nM.
Take `CN(C)c1cc2c(c(CN)n1)CN(c1cccc(-c3nncn3CC3CC3)n1)C2=O` [Example 16, 4-(aminomethyl)-2-{6-[4-(cyclopropylmethyl)-4H-1,2,4-triazol-3-yl]pyridin-2-yl}-6-(dimethylamino)-2,3-dihydro-1H-pyrrolo[3,4-c]pyridin-1-one]: the Ki in experiment [1] amounted to 0.56 nM. For the same compound, the IC50 in experiment [2] is 358 nM.
On the same counts, the results for `CNCc1nc(N(C)C)cc2c1CN(c1cccc(-c3nncn3[C@@H](C)CC(F)(F)F)n1)C2=O` [Example 17, 6-(dimethylamino)-4-[(methylamino)methyl]-2-(6-{4-[(2S)-4,4,4-trifluorobutan-2-yl]-4H-1,2,4-triazol-3-yl}pyridin-2-yl)-2,3-dihydro-1H-pyrrolo[3,4-c]pyridin-1-one] are below 0.05 nM and 70 nM.
`CCn1cnnc1-c1cccc(N2Cc3c(cc(N(C)C)nc3CNC)C2=O)n1` [Example 20, 6-(dimethylamino)-2-[6-(4-ethyl-4H-1,2,4-triazol-3-yl)pyridin-2-yl]-4-[(methylamino)methyl]-2,3-dihydro-1H-pyrrolo[3,4-c]pyridin-1-one]: the Ki in experiment [1] came to 2.8 nM. Besides, the IC50 in experiment [2] was found to be 158 nM.
For the compound `CNCc1nc(N(C)C)cc2c1CN(c1cccc(-c3nncn3CC3CC3)n1)C2=O` [Example 21, 2-{6-[4-(cyclopropylmethyl)-4H-1,2,4-triazol-3-yl]pyridin-2-yl}-6-(dimethylamino)-4-[(methylamino)methyl]-2,3-dihydro-1H-pyrrolo[3,4-c]pyridin-1-one], in experiment [1], the Ki came to 0.62 nM. For the same compound, the IC50 in experiment [2] came out at 245 nM.
On the same counts, the results for `CNCc1nc(N(C)C)cc2c1CN(c1ccc(F)c(-c3cn[nH]c3C(C)C)n1)C2=O` [Example 22, 6-(dimethylamino)-2-{5-fluoro-6-[5-(propan-2-yl)-1H-pyrazol-4-yl]pyridin-2-yl}-4-[(methylamino)methyl]-2,3-dihydro-1H-pyrrolo[3,4-c]pyridin-1-one] are 0.4 nM and 105 nM.
On the same counts, the results for `C[C@H]1COC(=O)N1c1cccc(N2Cc3c(cc(C4CC4)nc3CN)C2=O)n1` [Example 26, 4-(aminomethyl)-6-cyclopropyl-2-{6-[(4S)-4-methyl-2-oxo-1,3-oxazolidin-3-yl]pyridin-2-yl}-2,3-dihydro-1H-pyrrolo[3,4-c]pyridin-1-one] are 0.9 nM and 439 nM.
Consider `CNCc1nc(N2[C@H](C)C[C@H]2C)cc2c1CN(c1cccc(-c3nncn3C(C)C)n1)C2=O` [Example 28, 6-[(2R,4R)-2,4-dimethylazetidin-1-yl]-4-[(methylamino)methyl]-2-{6-[4-(propan-2-yl)-4H-1,2,4-triazol-3-yl]pyridin-2-yl}-2,3-dihydro-1H-pyrrolo[3,4-c]pyridin-1-one], for which the Ki in experiment [1] is 0.41 nM. In experiment [2], the IC50 was found to be 119 nM.
On the same counts, the results for `CNCc1nc(C(C)(C)C)cc2c1CN(c1cccc(-c3nncn3C(C)C)n1)C2=O` [Example 29, 6-tert-butyl-4-[(methylamino)methyl]-2-{6-[4-(propan-2-yl)-4H-1,2,4-triazol-3-yl]pyridin-2-yl}-2,3-dihydro-1H-pyrrolo[3,4-c]pyridin-1-one] are 3.2 nM and 396 nM.
On to `CNCc1nc(C(C)C)cc2c1CN(c1cccc(-c3nncn3C(C)C)n1)C2=O` [Example 30, 4-[(methylamino)methyl]-6-(propan-2-yl)-2-{6-[4-(propan-2-yl)-4H-1,2,4-triazol-3-yl]pyridin-2-yl}-2,3-dihydro-1H-pyrrolo[3,4-c]pyridin-1-one], for which the Ki in experiment [1] was determined as 2.1 nM. Also, the IC50 in experiment [2] was determined as 573 nM.
In the case of `C[C@H]1COC(=O)N1c1cccc(N2Cc3c(cc(N(C)C)nc3CN)C2=O)n1` [Example 32, 4-(aminomethyl)-6-(dimethylamino)-2-{6-[(4S)-4-methyl-2-oxo-1,3-oxazolidin-3-yl]pyridin-2-yl}-2,3-dihydro-1H-pyrrolo[3,4-c]pyridin-1-one], in experiment [1], the Ki turned out to be 0.34 nM. Moreover, the IC50 in experiment [2] turned out to be 210 nM.
As to `CNCc1nc(N2CCC2)cc2c1CN(c1cccc(N3C(=O)OC[C@@H]3C)n1)C2=O` [Example 33, 6-(azetidin-1-yl)-4-[(methylamino)methyl]-2-{6-[(4S)-4-methyl-2-oxo-1,3-oxazolidin-3-yl]pyridin-2-yl}-2,3-dihydro-1H-pyrrolo[3,4-c]pyridin-1-one], the Ki in experiment [1] was 0.28 nM. Moreover, the IC50 in experiment [2] was determined as 134 nM.
On the same counts, the results for `CC(C)n1cnnc1-c1cccc(N2Cc3c(cc(N4[C@H](C)C[C@@H]4C)nc3CN)C2=O)n1` [Example 34, 4-(aminomethyl)-6-[(2R,4S)-2,4-dimethylazetidin-1-yl]-2-{6-[4-(propan-2-yl)-4H-1,2,4-triazol-3-yl]pyridin-2-yl}-2,3-dihydro-1H-pyrrolo[3,4-c]pyridin-1-one] are 1.32 nM and 379 nM.
As for `CC(C)c1cnnn1-c1cccc(N2Cc3c(cc(N(C)C)nc3CN)C2=O)n1` [Example 35, 4-(aminomethyl)-6-(dimethylamino)-2-{6-[5-(propan-2-yl)-1H-1,2,3-triazol-1-yl]pyridin-2-yl}-2,3-dihydro-1H-pyrrolo[3,4-c]pyridin-1-one], the Ki in experiment [1] came out at 0.12 nM. Besides, the IC50 in experiment [2] was determined as 183 nM.
On the same counts, the results for `C[C@H]1COC(=O)N1c1cccc(N2Cc3c(cc(C(C)(C)C)nc3CN)C2=O)n1` [Example 36, 4-(aminomethyl)-6-tert-butyl-2-{6-[(4S)-4-methyl-2-oxo-1,3-oxazolidin-3-yl]pyridin-2-yl}-2,3-dihydro-1H-pyrrolo[3,4-c]pyridin-1-one] are 5.1 nM and 1110 nM.
